According to ChEMBL document CHEMBL5550157, “Synthesis and biological evaluation of orally active anti-Trypanosoma agents” (Bioorg Med Chem, 2024):

What was measured:
Trypanosoma brucei [1] = test: Antitrypanosomal activity against bloodstream Trypanosoma brucei Lister 427 assessed as reduction in parasite viability incubated for 48 hrs by MTS assay; type: functional, organism-based; details: Lister 427, 48 h
[2] = Cytotoxicity against mouse RAW264.7 cells assessed as reduction in cell viability after 48 hrs by MTT assay; type: toxicity, cell-based
[3] = Cytotoxicity against HEK293 cells assessed as reduction in cell viability after 48 hrs by MTT assay; type: toxicity, cell-based; details: human
[4] = Selectivity index, ratio of IC50 for mouse RAW264.7 cells to IC50 for antitrypanosomal activity against bloodstream Trypanosoma brucei Lister 427; type: toxicity; details: read-out: Ratio IC50
[5] = Selectivity index, ratio of IC50 for HEK293 cells to IC50 for antitrypanosomal activity against bloodstream Trypanosoma brucei Lister 427; type: toxicity; details: human, read-out: Ratio IC50
Trypanosoma brucei [6] = test: Antitrypanosomal activity against Trypanosoma brucei infected in CD1 mouse assessed as reduction in parasite number at 50 mg/kg/day, po administered for 3 days and measured on day 5 by hemocytometer analysis (reference value: 40 10^6/ml; type: functional; details: time 5 day
[7] = Acute toxicity in CD1 mouse assessed as change in body weight at 50 mg/kg, po; type: organism-based; details: in vivo

COc1cc(NC(=O)c2ccc3c(c2)OCO3)ccc1S(N)(=O)=O
IC50 (Trypanosoma brucei [1]): 10.9 µM
IC50 at 48 h [2]: 48.1 µM
IC50 at 48 h [3]: 8.8 µM
selectivity ratio [4]: 4.41
selectivity ratio [5]: 0.81

COc1cc(NC(=O)c2ccc(SC)cc2)ccc1S(N)(=O)=O
IC50 (Trypanosoma brucei [1]): > 100 µM
IC50 at 48 h [2]: 19.6 µM
IC50 at 48 h [3]: > 100 µM
selectivity ratio [4]: < 0.2

COc1cc(NC(=O)c2cc(Cl)cc(Cl)c2)ccc1S(N)(=O)=O
IC50 (Trypanosoma brucei [1]): > 100 µM
IC50 at 48 h [2]: 81 µM
IC50 at 48 h [3]: 98 µM
selectivity ratio [4]: < 0.81
selectivity ratio [5]: < 0.98

COc1cc(NC(=O)c2ccc(Cl)c([N+](=O)[O-])c2)ccc1S(N)(=O)=O
IC50 (Trypanosoma brucei [1]): 15.2 µM
IC50 at 48 h [2]: 72.7 µM
IC50 at 48 h [3]: 15.7 µM
selectivity ratio [4]: 4.77
selectivity ratio [5]: 1.03

COc1cc(NC(=O)c2cccc(C(F)(F)F)c2)ccc1S(N)(=O)=O
IC50 (Trypanosoma brucei [1]): 35.9 µM
IC50 at 48 h [2]: 76.7 µM
IC50 at 48 h [3]: > 100 µM
selectivity ratio [4]: 2.13
selectivity ratio [5]: > 2.78

COc1cc(NC(=O)c2cc(C(F)(F)F)cc(C(F)(F)F)c2)ccc1S(N)(=O)=O
IC50 (Trypanosoma brucei [1]): 23.9 µM
IC50 at 48 h [2]: 46.3 µM
IC50 at 48 h [3]: 74.3 µM
selectivity ratio [4]: 1.94
selectivity ratio [5]: 3.11

CCc1ccc(C(=O)Nc2ccc(S(N)(=O)=O)c(OC)c2)cc1
IC50 (Trypanosoma brucei [1]): 37.2 µM
IC50 at 48 h [2]: 23.9 µM
IC50 at 48 h [3]: 5.69 µM
selectivity ratio [4]: 0.64
selectivity ratio [5]: 0.15

COc1cc(NC(=O)c2cc(OC)c(OC)c(OC)c2)ccc1S(N)(=O)=O
IC50 (Trypanosoma brucei [1]): 92.1 µM
IC50 at 48 h [2]: 34.6 µM
IC50 at 48 h [3]: 32.9 µM
selectivity ratio [4]: 0.38
selectivity ratio [5]: 0.36

COc1cc(NC(=O)c2cccc(Br)c2)ccc1S(N)(=O)=O
IC50 (Trypanosoma brucei [1]): 13.3 µM
IC50 at 48 h [2]: 20.9 µM
IC50 at 48 h [3]: 48.6 µM
selectivity ratio [4]: 1.57
selectivity ratio [5]: 3.66

COc1cc(NC(=O)c2ccc(N(C)C)cc2)ccc1S(N)(=O)=O
IC50 (Trypanosoma brucei [1]): > 100 µM
IC50 at 48 h [2]: > 100 µM
IC50 at 48 h [3]: > 100 µM

COc1cc(NC(=O)c2ccc(C(F)(F)F)cc2C(F)(F)F)ccc1S(N)(=O)=O
IC50 (Trypanosoma brucei [1]): 81.4 µM
IC50 at 48 h [2]: 59.1 µM
IC50 at 48 h [3]: > 100 µM
selectivity ratio [4]: 0.73
selectivity ratio [5]: > 1.22

COc1cc(NC(=O)c2ccc(Br)cc2)ccc1S(N)(=O)=O
IC50 (Trypanosoma brucei [1]): 3.26 µM
IC50 at 48 h [2]: 48.3 µM
IC50 at 48 h [3]: 86.8 µM
selectivity ratio [4]: 12.1
selectivity ratio [5]: 21.7

COc1cc(NC(=O)c2cccc(I)c2)ccc1S(N)(=O)=O
IC50 (Trypanosoma brucei [1]): 19.4 µM
IC50 at 48 h [2]: > 100 µM
IC50 at 48 h [3]: 48.9 µM
selectivity ratio [4]: > 5.16
selectivity ratio [5]: 2.53

COc1cc(NC(=O)c2ccccn2)ccc1S(N)(=O)=O
IC50 (Trypanosoma brucei [1]): > 100 µM
IC50 at 48 h [2]: > 100 µM
IC50 at 48 h [3]: > 100 µM

COc1cc(NC(=O)c2ccccc2[N+](=O)[O-])ccc1S(N)(=O)=O
IC50 (Trypanosoma brucei [1]): > 100 µM
IC50 at 48 h [2]: > 100 µM
IC50 at 48 h [3]: > 100 µM

COc1cc(NC(=O)c2ccc(Cl)cc2)ccc1S(N)(=O)=O
IC50 (Trypanosoma brucei [1]): 46.6 µM
IC50 at 48 h [2]: 43.9 µM
IC50 at 48 h [3]: > 100 µM
selectivity ratio [4]: 0.94
selectivity ratio [5]: > 2.14

COc1cc(NC(=O)c2ccc(C)cc2)ccc1S(N)(=O)=O
IC50 (Trypanosoma brucei [1]): 70.4 µM
IC50 at 48 h [2]: 53.2 µM
IC50 at 48 h [3]: 17.2 µM
selectivity ratio [4]: 0.76
selectivity ratio [5]: 0.24

COc1cc(NC(=O)c2ccco2)ccc1S(N)(=O)=O
IC50 (Trypanosoma brucei [1]): 9.79 µM
IC50 at 48 h [2]: > 100 µM
IC50 at 48 h [3]: > 100 µM
selectivity ratio [4]: > 10.2
selectivity ratio [5]: > 10.2

COc1cc(NC(=O)c2cccc(Cl)c2)ccc1S(N)(=O)=O
IC50 (Trypanosoma brucei [1]): 2.73 µM
IC50 at 48 h [2]: 91.5 µM
IC50 at 48 h [3]: > 100 µM
selectivity ratio [4]: 33.5
selectivity ratio [5]: > 36.6

COc1cc(NC(=O)COCC(=O)Nc2ccc(S(N)(=O)=O)c(OC)c2)ccc1S(N)(=O)=O
IC50 (Trypanosoma brucei [1]): 85.2 µM
IC50 at 48 h [2]: 81 µM
IC50 at 48 h [3]: 98 µM
selectivity ratio [4]: 0.95
selectivity ratio [5]: 1.15

COc1cc(NC(=O)c2ccc(C)c([N+](=O)[O-])c2)ccc1S(N)(=O)=O
IC50 (Trypanosoma brucei [1]): 7.76 µM
IC50 at 48 h [2]: 53.1 µM
IC50 at 48 h [3]: > 100 µM
selectivity ratio [5]: > 33.3

COc1cc(NC(=O)c2ccc(C#N)cc2)ccc1S(N)(=O)=O
IC50 (Trypanosoma brucei [1]): 4.23 µM
IC50 at 48 h [2]: > 100 µM
IC50 at 48 h [3]: > 100 µM
selectivity ratio [4]: > 26.5
selectivity ratio [5]: > 26.5

COc1cc(NC(=O)c2cccc(C)c2)ccc1S(N)(=O)=O
IC50 (Trypanosoma brucei [1]): 31 µM
IC50 at 48 h [2]: > 100 µM
IC50 at 48 h [3]: > 100 µM
selectivity ratio [4]: > 3.22
selectivity ratio [5]: > 3.22

COc1cc(NC(=O)c2ccc(Cl)c(Cl)c2)ccc1S(N)(=O)=O
IC50 (Trypanosoma brucei [1]): 38.6 µM
IC50 at 48 h [2]: 23.8 µM
IC50 at 48 h [3]: 22.4 µM
selectivity ratio [4]: 0.62
selectivity ratio [5]: 0.58

COc1cc(NC(=O)c2ccc(OC(F)(F)F)cc2)ccc1S(N)(=O)=O
IC50 (Trypanosoma brucei [1]): 36.3 µM
IC50 at 48 h [2]: 33.8 µM
IC50 at 48 h [3]: 35.8 µM
selectivity ratio [4]: 0.93
selectivity ratio [5]: 0.99

COc1cccc(C(=O)Nc2ccc(S(N)(=O)=O)c(OC)c2)c1
IC50 (Trypanosoma brucei [1]): 2.99 µM
IC50 at 48 h [2]: 113 µM
IC50 at 48 h [3]: > 100 µM
selectivity ratio [4]: 38
selectivity ratio [5]: > 33.5

COc1cc(NC(=O)c2cccc(C#N)c2)ccc1S(N)(=O)=O
IC50 (Trypanosoma brucei [1]): 20.8 µM
IC50 at 48 h [2]: 35 µM
IC50 at 48 h [3]: > 100 µM
selectivity ratio [4]: 1.68
selectivity ratio [5]: > 4

COc1cc(NC(=O)c2ccc([N+](=O)[O-])cc2)ccc1S(N)(=O)=O
IC50 (Trypanosoma brucei [1]): 3.29 µM
IC50 at 48 h [2]: 578 µM
IC50 at 48 h [3]: > 100 µM
selectivity ratio [4]: 176
selectivity ratio [5]: > 30.4

COc1cc(NC(=O)c2ccc3ccccc3c2)ccc1S(N)(=O)=O
IC50 (Trypanosoma brucei [1]): 1 µM
IC50 at 48 h [2]: 18.1 µM
IC50 at 48 h [3]: 18 µM
selectivity ratio [4]: 18.1
selectivity ratio [5]: 17.9
Activity (Trypanosoma brucei [6]): 10 10^6/ml
Activity [7]: Non-Toxic

CCOc1ccc(C(=O)Nc2ccc(S(N)(=O)=O)c(OC)c2)cc1
IC50 (Trypanosoma brucei [1]): 2.68 µM
IC50 at 48 h [2]: > 100 µM
IC50 at 48 h [3]: > 100 µM
selectivity ratio [4]: > 37.3
selectivity ratio [5]: > 37.3
